# In patent publication US10709710B2, “Composition comprising uric acid for the treatment treated with mechanical thrombectomy” (Hospital Clinic de Barcelona, priority 2017, dated 2020):
# Legend:
# [1] = tested on: ischemic brain stroke patients treated with mechanical thrombectomy; experiment: Treatment with uric acid of ischemic brain stroke patients treated with intravenous thrombolysis and mechanical thrombectomy; type: in vivo, humans
# Description: Example 1. Treatment with uric acid of ischemic brain stroke patients treated with intravenous thrombolysis and mechanical thrombectomy.
# In total, 45 ischemic brain stroke patients were enrolled in this study and received the combination of thrombolytic treatment (using rt-PA) and mechanical thrombectomy. […] The patients of this study were recruited at eight centres and, in all the cases, the corresponding informed consent was obtained from the patient or its legal representative.
# (§1) All patients that were selected for the study received one standard dose ([…]) of rtPA (in the present case, intravenous alteplase) within the 4.5 hours following the brain stroke. During infusion of intravenous alteplase, patients were assigned randomly in a 1:1 proportion to the uric acid group or to the placebo group, so that they received 500 ml of intravenous solution of 1000 mg of uric acid or placebo (physiologic serum comprising 0.1% […] and 5% mannitol), respectively, both contained in glass bottles covered with opaque yellow bags tag in identical manner. Said treatment with uric acid or placebo was applied during 90 minutes.
# The mechanical thrombectomy procedure was carried in accordance to the procedure pointed out in the REVASCAT assay (Jovin T G, Chamorro A, Cobo E, de Miguel M A, Molina C A, Rovira A, San Román L, Serena J, Abilleira S, Ribó M, Millán M, Urra X, Cardona P, López-Cancio E, Tomasello A, Castaño C, Blasco J, Aja L, Dorado L, Quesada H, Rubiera M, Hernandez-Pérez M, Goyal M, Demchuk A M, von Kummer R, Gallofré M, Dávalos A; REVASCAT Trial Investigators.. Thrombectomy within 8 hours after symptom onset in ischemic stroke. N Engl J Med. 2015; 372:2296-306) and it was started before the 90 minutes of the infusion of the composition with uric acid or placebo had elapsed.
# To determine if the revascularization was successful the conventional technique of digital angiography by subtraction was used. Successful vessel revascularization was considered that with grade 2b (indicating reperfusion of from 50% to 90% of the damaged zone), or grade 3 (complete reperfusion of the damaged zone) in accordance with the modified Thrombolysis in Cerebral Infarction (hereinafter, mTICI) scale of 0 to 3.
# In addition, certain parameters (death, incidence of intracranial hemorrhages and incidence of gout attacks) were measured in order to determine the safety of the new treatment (treatment of the present invention).
# [2] = tested on: patients with ischemic brain stroke not treated with mechanical thrombectomy; experiment: Same type of study in ischemic brain stroke patients not treated with mechanical thrombectomy; type: in vivo, humans
# Method: as §1
# The same type of study was carried out with other subpopulations with ischemic brain stroke (not treated with mechanical thrombectomy, but the rest of the treatment and the procedure was the same).
# [3] = tested on: occlusion of the middle cerebral artery; conditions: adult rat; uric acid 24 hours before the occlusion or 1 hour after the reperfusion; cited from earlier work
# [4] = tested on: thromboembolism model of focal cerebral ischemia; conditions: rat thromboembolism model; synergic with rtPA; cited from earlier work
# [5] = tested on: patients with acute stroke; conditions: URICO-ICTUS phase 2b/3, cited from earlier work
# hippocampus cells = conditions: culture of hippocampus cells; cited from earlier work
# [6] = in words, with mechanical thrombectomy
# [7] = with mechanical thrombectomy, uric acid group n = 24
# [8] = Patients which consume alcohol, uric acid n = 10
# [9] = Patients which have suffered previous brain stroke, uric acid n = 30
# [10] = Patients with atrial fibrillation, uric acid n = 35
# [11] = Patients with cardioembolism, uric acid n = 86
# [12] = Patients with coronary disease, uric acid n = 31
# [13] = Patients with diabetes, uric acid n = 55
# [14] = Patients with dyslipidaemia, uric acid n = 81
# [15] = Smoking patients, uric acid n = 35
# [16] = Women patients, uric acid n = 100
# [17] = general population not treated with mechanical thrombectomy, uric acid n = 187
# [18] = in words, general population without mechanical thrombectomy
smiles,measurement,setting,value
"O=c1[nH]c(=O)c2[nH]c(=O)[nH]c2[nH]1 [Uric acid, uric acid]","successfulness in the revascularization, uric acid vs placebo","[1]; in words, mTICI grade 2b or 3",no significant differences
same,"complete independence of the patients at 90 days (Barthel index score of 95-100), uric acid vs placebo",[1]; [6],statistically significant and surprising improvement
same,"good results at 90 days (mRS score of between 0-2), uric acid vs placebo",[1]; [6],statistically significant and surprising improvement
same,"growth of the infarcted zone at 72 hours from the treatment, uric acid vs placebo",[1]; [6],statistically significant and surprising improvement
same,"rest of measured parameters, uric acid vs placebo",[1]; [6],positive and improvement tendency
same,"safety: death, incidence of intracranial hemorrhages and incidence of gout attacks, uric acid vs placebo",[1]; [6],no differences were observed
same,"mTICI Score 0, number of patients","[1]; revascularization by digital subtraction angiography, uric acid 1000 mg i.v. + rtPA + mechanical thrombectomy, n = 24",3
same,"mTICI Score 0, share of group (in parentheses)","[1]; revascularization by digital subtraction angiography, uric acid group n = 24",(13)
same,"mTICI Score 1, number of patients",[1]; uric acid group n = 24,0
same,"mTICI Score 2a, number of patients",[1]; uric acid group n = 24,1
same,"mTICI Score 2a, share of group (in parentheses)",[1]; uric acid group n = 24,(4)
same,"mTICI Score 2b, number of patients",[1]; uric acid group n = 24,7
same,"mTICI Score 2b, share of group (in parentheses)",[1]; uric acid group n = 24,(29)
same,"mTICI Score 2b/3 (successful revascularization), number of patients",[1]; uric acid group n = 24,20
same,"mTICI Score 2b/3 (successful revascularization), share of group (in parentheses)",[1]; uric acid group n = 24,(83)
same,"mTICI Score 3, number of patients",[1]; uric acid group n = 24,13
same,"mTICI Score 3, share of group (in parentheses)",[1]; uric acid group n = 24,(54)
same,"mRS score of between 0-2 at 90 días, %","[1]; with mechanical thrombectomy, uric acid 1000 mg i.v. + rtPA, n = 24",(66.6) %
same,"Barthel index score of 95-100 at 90 days, %",[1]; [7],(66.6) %
same,"Growth of the infarcted zone at 72 hours of the treatment, mean",[1]; [7],-33.2 mL
same,"NIHSS score 0 at 90 days, %",[1]; [7],(37.5) %
same,"Volume of the infarcted zone at 72 hours of the treatment measured by means of magnetic resonance image of the brain, mean",[1]; [7],17.2
same,"Barthel index score of 95-100 at 90 days, %","[2]; Men patients, uric acid n = 87",(50.6) %
same,"mRS score of between 0-2 at 90 dies, %","[2]; Men patients, uric acid n = 87",(51.7) %
same,"Barthel index score of 95-100 at 90 days, %",[2]; [8],(20) %
same,"mRS score of between 0-2 at 90 dies, %",[2]; [8],(40) %
same,"Barthel index score of 95-100 at 90 days, %",[2]; [9],(40) %
same,"mRS score of between 0-2 at 90 dies, %",[2]; [9],(43.3) %
same,"Barthel index score of 95-100 at 90 days, %",[2]; [10],(31.4) %
same,"mRS score of between 0-2 at 90 dies, %",[2]; [10],(42.9) %
same,"Barthel index score of 95-100 at 90 days, %",[2]; [11],(45.3) %
same,"mRS score of between 0-2 at 90 dies, %",[2]; [11],(48.8) %
same,"Barthel index score of 95-100 at 90 days, %",[2]; [12],(51.6) %
same,"mRS score of between 0-2 at 90 dies, %",[2]; [12],(45.2) %
same,"Barthel index score of 95-100 at 90 days, %",[2]; [13],(45.8) %
same,"mRS score of between 0-2 at 90 dies, %",[2]; [13],(45.5) %
same,"Barthel index score of 95-100 at 90 days, %",[2]; [14],(50.6) %
same,"mRS score of between 0-2 at 90 dies, %",[2]; [14],(49.4) %
same,"mRS score of between 0-2 at 90 dies, %","[2]; Patients with hypertension (arterial pressure over 160 mmHg), uric acid n = 131",(48.9) %
same,"Barthel index score of 95-100 at 90 days, %","[2]; Patients with hypertension, uric acid n = 131",(45.8) %
same,"mRS score of between 0-2 at 90 dies, %","[2]; Patients with large vessel arteriosclerosis (arterial stenosis +2250%), uric acid n = 19",(31.6) %
same,"Barthel index score of 95-100 at 90 days, %","[2]; Patients with large vessel arteriosclerosis, uric acid n = 19",(21.1) %
same,"Barthel index score of 95-100 at 90 days, %",[2]; [15],(42.9) %
same,"mRS score of between 0-2 at 90 dies, %",[2]; [15],(50) %
same,"Barthel index score of 95-100 at 90 days, %",[2]; [16],(42) %
same,"mRS score of between 0-2 at 90 dies, %",[2]; [16],(50) %
same,"Barthel index score of 95-100 at 90 days, %",[2]; [17],45.6%
same,"mRS score of between 0-2 at 90 dies, %",[2]; [17],44.7%
same,effect in the percentage of patients with Barthel index score 95-100,[2]; [18],only a minimal effect
same,effect in the percentage of patients with an mRS score of between 0 and 2 at 90 days,[2]; [18],did not show a detectable effect
same,lipid peroxidation,[3],reduces
same,reactive oxygen species accumulation,[3],suppresses
same,resulting cerebral infarction,[3],significantly reduces
same,neuroprotective effect,[4],neuroprotective
same,safety of uric acid in combination with the standard thrombolytic treatment (alteplase),[5],safe
same,proportion of patients with excellent results at 90 days,[5]; combined with alteplase,no change was seen
same,protection against excitotoxic damage by glutamate,hippocampus cells,protects against excitotoxic damage by glutamate
